“And” between values parts separate entries of the source, which are not always exact repeats. Equal values may be shown once.
What was measured:
[1] = tested on: K562 (human immortalized myelogenous leukemia) cells; experiment: Cytotoxic activity, WST-1 assay, K562; assay type: cell-based
Description: (§1) In vitro anticancer assays were performed in triplicate for the determination of mean values. The human cervical carcinoma SiHa, murine melanoma B16F10, chronic myelogenous leukemia (CML) K562, and Chang cell lines were cultured in minimum essential medium of Eagle at 37 °C in a […] atmosphere with 10% fetal bovine serum, 2 mM L-glutamine and 1% penicillin/streptomycin. Cells were trypsinized and seeded at a density of 5 × 10^4 cells/mL in a 96-well plate and incubated at 37 °C, […] atmosphere for 24 h. Thereafter the cells were treated with azetidin-2-one derivatives (dissolved in DMSO) at various concentrations between 312 nM–10 μM, and re-incubated for further 72 h. Wells containing the equal volume of the vehicle DMSO (1% v/v) were used as background (negative control). The culture medium was then removed and the cells washed with 100 μL phosphate buffered saline (PBS); then 10 μL WST-1 (Roche, USA) was added. Cells were incubated for 2 h in absence of light at 37°C, and absorbance was read subsequently. […] Afterwards, these values were used to assess half maximal inhibitory concentration (IC50) using Graph-Pad Prism software.

[2] = tested on: B16F10 (murine melanoma) cells; experiment: Cytotoxic activity, WST-1 assay, B16F10; assay type: cell-based
Description: as §1

[3] = tested on: SiHa (human cervical carcinoma) cells; experiment: Cytotoxic activity, WST-1 assay, SiHa; assay type: cell-based
Description: as §1

[4] = tested on: Chang (normal liver) cells; experiment: cells; assay type: cell-based; details: 72 h, WST-1, triplicate
Description: as §1

[5] = tested on: caspase-3 activation in B16F10 cells; experiment: Apoptotic activity, caspase-3 assay; assay type: cell-based, murine; details: 24 h, podophyllotoxin as positive control
Description: The mechanism of cell death was identified as apoptosis. It was validated with the compound 6C. Enzyme activity associated with the induction of apoptosis was determined by caspase-3 assay (Invitrogen, USA) as described in the protocol. A concentration of approximately 3 × 10^6 cells/mL (B16F10) was taken and incubated for 24 h at 37 °C in 5% CO2 environment. Podophyllotoxin (apoptosis inducing agent) was used as positive control. After incubation for 24 h the cells were re-suspended and 50 μL of cell lysis reagent was added, then cells were incubated for 10 min in ice bath and centrifuged. The supernatant (cytosol extract) was transferred into a new effendrof. Cytosol extract was diluted with cell lysis reagent to a concentration of 2 μg/μL, in a total volume of 50 μL. Then 50 μL of 2X reaction buffer and 5 μL of tetrapeptide-p-nitroaniline (DEVD-pNA) were added. It was incubated at 37 °C for 2 h (in dark), and finally the optical density at 405 nm was measured with an ELISA Reader. Caspase-3 activity was calculated that confirmed apoptosis as the mechanism of cell death.

[6] = tested on: SiHa cells; experiment: Hematoxylin/Eosin staining of SiHa cells; assay type: cell-based, human; details: 24 h, 6C 1 μM, taxol
Description: (§2) The cytotoxic effect of the compound 6C in SiHa and Chang cells has been studied (Figure 2).
(§3) Cells (10 × 10^4) were grown on coated poly-lysine coverslips which were placed in 6-well microplates overnight and then incubated for 24 h in the presence of compound 6C or taxol, subsequently stained with hematoxylin and eosin. Coverslips were then observed by Light microscopy of bright field (40X).

[7] = tested on: Chang cells; experiment: Hematoxylin/Eosin staining of Chang cells; assay type: cell-based; details: 24 h, 6C 1 μM, taxol
Description: as §2, §3

SMILES	IC50 ([1]; 72 h, WST-1, triplicate) [µM]	IC50 ([2]; 72 h, WST-1, triplicate)	IC50 ([3]; 72 h, WST-1, triplicate) [µM]	IC50 [4] [µM]	also measured
COc1ccc([C@@H]2[C@H](N)C(=O)N2c2ccc(OC)cc2)cc1 (racemic) [1C, (±)-Cis-3-amino-1,4-bis(4-methoxyphenyl) azetidin-2-one]	> 10	3.33 ± 0.3 µM	4.21 ± 0.4	6.21 ± 0.5	–
COc1ccc([C@H]2[C@H](N)C(=O)N2c2ccc(OC)cc2)cc1 (racemic) [1T, (±)-Trans-3-amino-1,4-bis(4-methoxyphenyl) azetidin-2-one]	> 10	5.16 ± 0.5 µM	7.17 ± 0.3	7.91 ± 0.4	–
COc1ccc([C@@H]2[C@H](N)C(=O)N2c2ccccc2)cc1 (racemic) [2C, (±)-Cis-3-amino-4-(4-methoxyphenyl)-1-phenyl-azetidin-2-one]	> 10	–	6.2 ± 0.6	8.03 ± 0.5	–
COc1ccc([C@H]2[C@H](N)C(=O)N2c2ccccc2)cc1 (racemic) [2T, (±)-Trans-3-amino-4-(4-methoxyphenyl)-1-phenyl-azetidin-2-one]	> 10	7.63 ± 0.4 µM	7.14 ± 0.5	> 10	–
COc1ccc(N2C(=O)[C@@H](N)[C@H]2c2ccc(OC)c(OC)c2)cc1 (racemic) [3C, (±)-Cis-3-amino-4-(3,4-dimethoxyphenyl)-1-(4-methoxyphenyl) azetidin-2-one]	6.14 ± 0.4	< 5 µM and 3.91 µM	5.1 ± 0.4	9.32 ± 0.6	–
COc1ccc(N2C(=O)[C@@H](N)[C@@H]2c2ccc(OC)c(OC)c2)cc1 (racemic) [3T, (±)-Trans-3-amino-4-(3,4-dimethoxyphenyl)-1-(4-methoxyphenyl) azetidin-2-one]	> 10	> 10 µM	> 10	> 10	–
COc1ccc(N2C(=O)[C@@H](N)[C@H]2c2ccccc2[N+](=O)[O-])cc1 (racemic) [4C, (±)-Cis-3-amino-1-(4-methoxyphenyl)-4-(2-nitrophenyl) azetidin-2-one]	> 10	5.91 ± 0.6 µM	7.28 ± 0.5	7.37 ± 0.4	–
COc1ccc(N2C(=O)[C@@H](N)[C@@H]2c2ccccc2[N+](=O)[O-])cc1 (racemic) [4T, (±)-Trans-3-amino-1-(4-methoxyphenyl)-4-(2-nitrophenyl) azetidin-2-one]	> 10	> 10 µM	8.12 ± 0.4	> 10	–
COc1ccc(N2C(=O)[C@@H](N)[C@H]2c2ccc(C)cc2)cc1 (racemic) [5C, (±)-Cis-3-amino-1-(4-methoxyphenyl)-4-(p-tolyl) azetidin-2-one]	> 10	–	4.03 ± 0.5	7.01 ± 0.1	–
COc1ccc(N2C(=O)[C@@H](N)[C@@H]2c2ccc(C)cc2)cc1 (racemic) [5T, (±)-Trans-3-amino-1-(4-methoxyphenyl)-4-(p-tolyl)azetidin-2-one]	> 10	7.14 ± 0.6 µM	7.79 ± 0.5	> 10	–
Cc1ccc([C@@H]2[C@H](N)C(=O)N2c2ccccc2)cc1 (racemic) [6C, (±)-Cis-3-amino-1-phenyl-4-(p-tolyl) azetidin-2-one]	> 10	0.7 ± 0.1 µM	2.34 ± 0.2	6.89 ± 0.3	Apoptosis through caspase-3 activation [5]: demonstrated apoptosis in B16F10 cancer cells through caspase-3 activation; times higher potency than colchicine ([2]; B16F10 cell lines, compared to colchicine): six; Morphological effect, Hematoxylin/Eosin staining [6]: loss of cytoplasm and decrease in the size of nuclei; Morphological effect, Hematoxylin/Eosin staining [7]: appearance of multiple intracytoplasmic vacuoles
Cc1ccc([C@H]2[C@H](N)C(=O)N2c2ccccc2)cc1 (racemic) [6T, (±)-Trans-3-amino-1-phenyl-4-(p-tolyl)azetidin-2-one]	> 10	5.79 ± 0.4 µM	4.79 ± 0.6	> 10	–
COc1ccc(N2C(=O)[C@@H](N)[C@H]2c2ccccn2)cc1 (racemic) [7C, (±)-Cis-3-amino-1-(4-methoxyphenyl)-4-(2-pyridyl)azetidin-2-one]	6.86 ± 0.4	> 10 µM	8.43 ± 0.3	5.49 ± 0.4	–
COc1ccc(N2C(=O)[C@@H](N)[C@@H]2c2ccccn2)cc1 (racemic) [7T, (±)-Trans-3-amino-1-(4-methoxyphenyl)-4-(2-pyridyl)azetidin-2-one]	> 10	> 10 µM	> 10	> 10	–
CC(=O)O[C@H]1C(=O)[C@@]2(C)[C@H]([C@H](OC(=O)c3ccccc3)[C@]3(O)C[C@H](OC(=O)[C@H](O)[C@@H](NC(=O)c4ccccc4)c4ccccc4)C(C)=C1C3(C)C)[C@]1(OC(C)=O)CO[C@@H]1C[C@@H]2O [Paclitaxel, reference compound]	–	–	–	0.068 ± 0.02	IC50 ([1]; Homo sapiens, K562, value marked * (ng/mL)): 0.0048 ± 0.0004 µg/mL; IC50 ([2]; Mus musculus, B16-F10, 72 h, WST-1, triplicate): 9.57 ± 0.2 µM; IC50 ([3]; Homo sapiens, SiHa, value marked * (ng/mL)): 0.364 ± 0.31 µg/mL; Morphological effect, Hematoxylin/Eosin staining [6]: induced severe cell damage; Morphological effect, Hematoxylin/Eosin staining [7]: early apoptosis
CC[C@]1(O)C[C@@H]2CN(CCc3c([nH]c4ccccc34)[C@@](C(=O)OC)(c3cc4c(cc3OC)N(C)[C@H]3[C@@](O)(C(=O)OC)[C@H](OC(C)=O)[C@]5(CC)C=CCN6CC[C@]43[C@@H]65)C2)C1 [Vinblastine, reference compound]	–	–	–	–	IC50 ([1]; Homo sapiens, K562, 72 h, WST-1, triplicate): 0.006 µM; IC50 ([2]; Mus musculus, B16-F10, value marked * (ng/mL)): 0.055 ± 0.028 µg/mL; IC50 ([3]; Homo sapiens, SiHa, 72 h, WST-1, triplicate): 10.9 ± 0.8 µM

— publication PMC5514948, “Stereochemical preference toward oncotarget: Design, synthesis and in vitro anticancer evaluation of diastereomeric β-lactams” (Oncotarget, 2017)
